What was measured:
[1] = Tolerability and body weight in 5xFAD mice; assay type: in vivo
Source text: Female 5xFAD transgenic mice (9–10 weeks old) were used to evaluate the efficacy of 0152 in reducing amyloid pathology. Mice were housed under Indiana University standard laboratory conditions. For intraperitoneal (IP) administration, mice received either vehicle or 0152 (indicated concentrations) in a formulation consisting of 20% DMSO, 20% Cremophor EL, and 60% PBS. For oral (PO) administration, mice received either vehicle or 0152 (indicated concentrations) in a formulation consisting of 10% NMP (N‐methyl‐2‐pyrrolidone), 10% PG (Propylene Glycol), 5% Solutol HS‐15, and 75% Captisol (10% w/v in RO water). At the end of the treatment period, mice were sacrificed, and their brains were collected for histological analysis. Brain tissues were fixed in 10% Formalin, embedded in paraffin, and sectioned. Thioflavin S staining was performed to visualize β‐sheet‐rich amyloid plaques, and immunohistochemistry was conducted using the 6E10 monoclonal antibody to detect Aβ plagues. Body weights were recorded daily throughout the study.

[2] = tested on: AD iPSC‐derived organoids; assay: AD iPSC-derived 3D brain organoids; assay type: cell-based, human
Description: For generating brain 3D organoids, Lancaster's protocol and Paşca's protocol were used with minor modifications. In brief, 9000 cells/ 100 µL of each well were seeded in Ultra‐low attachment 96 well U‐bottom plates (Sbio) supplemented with 10 µM of ROCK inhibitor. The next day, 100 µL of mTeSR1 was added, and the cells were cultured as embryonic bodies (EB) for 5 days at 37°C in 5% CO2 incubator. When the size of EB reached 400–600 µm, EBs were transferred into ultra‐low binding 24 well (Corning) with 200 µL of neural differentiation medium (Neurobasal medium (Gibco), 2% B27, 1X Glutamax) with 2 µg/mL of Doxycycline and incubated for 5 days at 37°C in 5% CO2 incubator until the size of EB was 700–800 µm. During this step, one EB was in one well, and the culture medium was changed every day with fresh neural differentiation medium with Doxycycline. At day 10, the EB was embedded into 15 µL of 100% Matrigel (Corning), and the embedded EBs were cultured in neural differentiation medium without Doxycycline in 6 well ultra‐low binding plates (Corning). […]
iPSC‐Ns or HEK‐APP695WT were treated with drugs, and secreted Aβ42 peptides inculture soup were quantified using the Human Amyloid β1‐42 human ELISA kit (Thermo Fisher) according to the manufacturer's protocol. […] Prior to quantification, formic acid‐containing samples were neutralized with 1 M Tris base (pH 11). Aβ40 and Aβ42 levels were measured using human‐specific ELISA kits (Invitrogen) and normalized to total protein concentrations determined by the BCA assay (Thermo Scientific). For Aβ quantification in 3D organoids, 3D organoids’ processing and ELISA analysis were performed with minor modifications from previously described protocols. […] Aβ42 levels in both fractions were measured using human‐specific ELISA kits (Thermo Fisher) according to the manufacturer's instructions. […] Aβ levels were normalized to total protein concentration determined by BCA assay. […]

COc1cccc(NC(=O)Nc2nc3ccc(C(=O)N4CCOCC4)cc3s2)c1 [compound 0152]
Tolerability, body weight ([1]; 80 mg/kg IP twice per day, 30 days): well tolerated with no weight loss
Body weight ([1]; 80 mg/kg oral gavage twice daily, 30 days): no observed weight loss
Tolerability (lethargy, ataxia, paralysis, seizures, weight loss) ([1]; 100 mg/kg IP daily, 24 days): tolerated treatment well
APP/Aβ42 immunoreactivity in organoids ([2]; AG27606 and UKBi011A organoids, 10 µM): reduced APP/Aβ42 levels
Aβ42 in organoids by ELISA ([2]; AG27606 organoids, RIPA-soluble and formic acid-solubilized fractions): significantly reduced Aβ42 levels
CAPRIN1–APP colocalization in organoids ([2]; AG27606 organoids, treated for three months): increased CAPRIN1–APP colocalization

Source: PMC13534789, “Molecular Glue Degraders Enhance CAPRIN1‐Dependent Lysosomal Degradation of APP and Reduce Amyloid β in Alzheimer's Disease” (Advanced Science, 2026)
